Source: PubChem BioAssay AID1963843 (Molecular Pharmacology Branch, DTP, NCI, 2024)
pIC50: −log10 of the molar value.

Test system: 616215-338-R-J1-PDC complex spheroid viability
Experiment: Anticancer human tumor 616215-338-R-J1-PDC patient-derived colon adenocarcinoma cell line growth inhibition [POLQ]
Conditions: for pIC50: curve of first compound; for viability, T/C: stronger effect = lower value
Procedure, shortened: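 Growth inhibition in 3D: complex spheroids (tumor PDC, HUVEC, MSC) treated with POLQ inhibitor combinations; where Cmax unknown, highest tested concentration 10 microM, except SN-38 at 1 microM.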

[1] = second compound 0.0316 µM, first compound 0.0316 µM
[2] = second compound 0.0316 µM, first compound 0.1 µM
[3] = second compound 0.0316 µM, first compound 0.316 µM
[4] = second compound 0.0316 µM, first compound 1 µM
[5] = second compound 0.1 µM, first compound 0.0316 µM
[6] = second compound 0.1 µM, first compound 0.1 µM
[7] = second compound 0.1 µM, first compound 0.316 µM
[8] = second compound 0.1 µM, first compound 1 µM
[9] = second compound 0.316 µM, first compound 0.0316 µM
[10] = second compound 0.316 µM, first compound 0.1 µM
[11] = second compound 0.316 µM, first compound 0.316 µM
[12] = second compound 0.316 µM, first compound 1 µM
[13] = second compound 1 µM, first compound 0.0316 µM
[14] = second compound 1 µM, first compound 0.1 µM
[15] = second compound 1 µM, first compound 0.316 µM
[16] = second compound 1 µM, first compound 1 µM
[17] = second compound 3.16 µM, first compound 0.0316 µM
[18] = second compound 3.16 µM, first compound 0.1 µM
[19] = second compound 3.16 µM, first compound 0.316 µM
[20] = second compound 3.16 µM, first compound 1 µM
[21] = second compound 10 µM, first compound 0.0316 µM
[22] = second compound 10 µM, first compound 0.1 µM
[23] = second compound 10 µM, first compound 0.316 µM
[24] = second compound 10 µM, first compound 1 µM
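Further: spheroids exposed to compounds for one week before readout.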
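Wherever viability, T/C is given: percent viability relative to DMSO vehicle wells taken as 100%.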

Question: What does the source list for `CCc1c2c(nc3ccc(O)cc13)-c1cc3c(c(=O)n1C2)COC(=O)[C@]3(O)CC` + Cc1cccc(N(C)C(=O)C2C(O)CCN2c2nc(C)cc(C(F)(F)F)c2C#N)c1?
Answer: pIC50 (second compound 0.0316 µM): 7.06; pIC50 (second compound 0.1 µM): 7.04; pIC50 (second compound 0.316 µM): 7.07; pIC50 (second compound 1 µM): 7.10; pIC50 (second compound 3.16 µM): 7.18; pIC50 (second compound 10 µM): 7.32; viability, T/C (second compound 0.0316 µM, first compound 0.00316 µM): 104%; viability, T/C (second compound 0.0316 µM, first compound 0.01 µM): 97%; viability, T/C [1]: 72.8%; viability, T/C [2]: 49.3%; viability, T/C [3]: 24.6%; viability, T/C [4]: 20.8%; viability, T/C (second compound 0.1 µM, first compound 0.00316 µM): 114%; viability, T/C (second compound 0.1 µM, first compound 0.01 µM): 90.5%; viability, T/C [5]: 71.9%; viability, T/C [6]: 44.5%; viability, T/C [7]: 33.5%; viability, T/C [8]: 16.1%; viability, T/C (second compound 0.316 µM, first compound 0.00316 µM): 109%; viability, T/C (second compound 0.316 µM, first compound 0.01 µM): 87.1%; viability, T/C [9]: 69.7%; viability, T/C [10]: 48.1%; viability, T/C [11]: 26.9%; viability, T/C [12]: 18.6%; viability, T/C (second compound 1 µM, first compound 0.00316 µM): 111%; viability, T/C (second compound 1 µM, first compound 0.01 µM): 92.9%; viability, T/C [13]: 79.9%; viability, T/C [14]: 40.1%; viability, T/C [15]: 26%; viability, T/C [16]: 18.7%; viability, T/C (second compound 3.16 µM, first compound 0.00316 µM): 116%; viability, T/C (second compound 3.16 µM, first compound 0.01 µM): 80.7%; viability, T/C [17]: 67.8%; viability, T/C [18]: 41.6%; viability, T/C [19]: 27.5%; viability, T/C [20]: 22.1%; viability, T/C (second compound 10 µM, first compound 0.00316 µM): 97.7%; viability, T/C (second compound 10 µM, first compound 0.01 µM): 68.7%; viability, T/C [21]: 62.3%; viability, T/C [22]: 39%; viability, T/C [23]: 25%; viability, T/C [24]: 23.1%

Question: `Nc1ccn(C2OC(CO)C(O)C2(F)F)c(=O)n1` (centres undefined) + Cc1cccc(N(C)C(=O)C2C(O)CCN2c2nc(C)cc(C(F)(F)F)c2C#N)c1 was tested. Which pIC50 (second compound 0.0316 µM) did it give?
Answer: Its pIC50 is 7.37.

Question: What about the pIC50 (second compound 0.1 µM) of the same compound?
Answer: The pIC50 was 7.27.

Question: And the pIC50 (second compound 0.316 µM)?
Answer: The pIC50 was 7.24.

Question: And the pIC50 (second compound 1 µM)?
Answer: Its pIC50 is 7.30.

Question: What about the pIC50 (second compound 3.16 µM) of the same compound?
Answer: The pIC50 was 7.24.

Question: And the pIC50 (second compound 10 µM)?
Answer: Its pIC50 is 7.23.

Question: And the viability, T/C [1]?
Answer: Its viability, T/C is 55.2%.

Question: What about the viability, T/C [2] of the same compound?
Answer: The viability, T/C was 36.6%.

Question: And the viability, T/C [3]?
Answer: The viability, T/C was 22.8%.

Question: And the viability, T/C [4]?
Answer: Its viability, T/C is 30.8%.

Question: And the viability, T/C (second compound 0.0316 µM, first compound 3.16 µM)?
Answer: The viability, T/C was 29.6%.

Question: And the viability, T/C (second compound 0.0316 µM, first compound 10 µM)?
Answer: The viability, T/C was 27%.

Question: And the viability, T/C [5]?
Answer: Its viability, T/C is 62.2%.

Question: And the viability, T/C [6]?
Answer: The viability, T/C was 37.8%.

Question: What about the viability, T/C [7] of the same compound?
Answer: The viability, T/C was 23.4%.

Question: What about the viability, T/C [8] of the same compound?
Answer: Its viability, T/C is 28.1%.

Question: What about the viability, T/C (second compound 0.1 µM, first compound 3.16 µM) of the same compound?
Answer: The viability, T/C was 40.2%.

Question: And the viability, T/C (second compound 0.1 µM, first compound 10 µM)?
Answer: The viability, T/C was 28.8%.

Question: And the viability, T/C [9]?
Answer: The viability, T/C was 66.7%.

Question: And the viability, T/C [10]?
Answer: The viability, T/C was 36.1%.

Question: What about the viability, T/C [11] of the same compound?
Answer: The viability, T/C was 26%.

Question: What about the viability, T/C [12] of the same compound?
Answer: The viability, T/C was 25.7%.

Question: And the viability, T/C (second compound 0.316 µM, first compound 3.16 µM)?
Answer: The viability, T/C was 34.4%.

Question: And the viability, T/C (second compound 0.316 µM, first compound 10 µM)?
Answer: The viability, T/C was 28.9%.

Question: What about the viability, T/C [13] of the same compound?
Answer: The viability, T/C was 61.9%.

Question: And the viability, T/C [14]?
Answer: Its viability, T/C is 32.2%.

Question: What about the viability, T/C [15] of the same compound?
Answer: Its viability, T/C is 25.4%.

Question: What about the viability, T/C [16] of the same compound?
Answer: The viability, T/C was 28.8%.

Question: And the viability, T/C (second compound 1 µM, first compound 3.16 µM)?
Answer: The viability, T/C was 26.7%.

Question: What about the viability, T/C (second compound 1 µM, first compound 10 µM) of the same compound?
Answer: Its viability, T/C is 27.1%.

Question: What about the viability, T/C [17] of the same compound?
Answer: Its viability, T/C is 62.5%.

Question: What about the viability, T/C [18] of the same compound?
Answer: Its viability, T/C is 40.4%.

Question: And the viability, T/C [19]?
Answer: Its viability, T/C is 25.5%.

Question: And the viability, T/C [20]?
Answer: Its viability, T/C is 29.4%.

Question: What about the viability, T/C (second compound 3.16 µM, first compound 3.16 µM) of the same compound?
Answer: Its viability, T/C is 28.2%.

Question: What about the viability, T/C (second compound 3.16 µM, first compound 10 µM) of the same compound?
Answer: Its viability, T/C is 26.8%.

Question: And the viability, T/C [21]?
Answer: The viability, T/C was 63.9%.

Question: And the viability, T/C [22]?
Answer: Its viability, T/C is 40.5%.

Question: What about the viability, T/C [23] of the same compound?
Answer: Its viability, T/C is 26%.

Question: What about the viability, T/C [24] of the same compound?
Answer: Its viability, T/C is 27.1%.

Question: And the viability, T/C (second compound 10 µM, first compound 3.16 µM)?
Answer: Its viability, T/C is 30.1%.

Question: And the viability, T/C (second compound 10 µM, first compound 10 µM)?
Answer: Its viability, T/C is 26.2%.
